Data on one compound can be found in US20110207697A1, “XANTHOHUMOL COMPOSITIONS AND METHODS FOR TREATING SKIN DISEASES OR DISORDERS” (Betal, LLC, priority 2008, published 2011).

Experiment [1] can be described thus: ORAC-Total (ORAClipo + ORAChydro). The source says:
An ORAC method for lipophilic antioxidants was further developed and validated using fluorescein as the fluorescent probe (Prior et al. 2003 J. Agric. Food Chem. 51: 3273-3279). This method has the advantage that similar assay conditions and standards can be used for both hydrophilic and lipophilic antioxidant components, such that the two values can be added together to obtain a total antioxidant capacity. In the present work, the ORAC value is expressed as the sum of values of both the water-soluble and fat-soluble parts. Green tea catechins (Polyphenon 60) were used as the control with the highest ORAC value among edible plants. Vitamin C and vitamin E were used as controls for water- and fat-soluble molecules, respectively. […] The SOAC scores are not included in this figure; ORAC values used are the sum of lipophilic and hydrophilic results. For each assay category, scaling was made logarithmic so that the plot on the chart resembles the associated rating. […] The larger the spatial area, the higher the overall antioxidative capacity. […] Both hydrophilic and lipophilic oxygen radical absorbance capacity (ORAC) assays were carried out at Brunswick Laboratory (Wareham, Mass.) based on the modified ORACfl method reported by Ou et al. (2001 J. Agric. Food Chem. 49: 4619-4626, 2002 J. Agr. Food Chem. 50: 3122-3128). Trolox, a water-soluble vitamin E analog, was used as the calibration standard. The data are expressed as mmole of Trolox equivalents per gram (mmol TE/g). The acceptable precision of the ORAC assay is a 15% relative standard deviation. Caffeic acid was used as the calibration standard. Hydroxyl radical ORAC (HOR-AC) is expressed as mmole caffeic acid equivalent per gram (mmol CAE/g). Trolox was used as the calibration standard. The peroxyl nitrite ORAC (NORAC) result is expressed as mmol TE/g. Alpha-tocopherol (vitamin E) was used as the calibration standard, and the singlet oxygen absorbance capacity (SOAC) result is expressed as mmole a-tocopherol equivalent (mmol VtE) per gram (Aubry et al. 1989). The abbreviation for the 1,1-diphenyl-2-picrylhydrazyl radical is DPPH. Radical-scavenging activity was measured by the change in absorbance at 517 nm with the DPPH result expressed as mmol TE/g. Similarly, FRAP is an abbreviation for the ferric reducing antioxidative power method, which utilizes chemical conversion of the yellow Fe 3+-2,4,6-tripyridyl s-triazine (TPTZ) complex to the blue Fe 2+-TPTZ complex by electron donation under acidic conditions (Okada and Okada 1998 J. Agric. Food Chem. 46: 401-406). The FRAP result is expressed as mmol TE/g (Ou et al. 2002b). Superoxide dismutase (SOD) was used as a calibration standard; the SOD result is expressed as kilo unit SOD equivalent (kunitSODeq) per gram.

Experiment [2] is described as follows: Singlet oxygen absorbance capacity (SOAC). The source says: [table] Alpha-tocopherol (vitamin E) was used as the calibration standard, and the SOAC result is expressed as mmol VtE/g. The higher the SOAC score, the higher the singlet oxygen-quenching capacity. […] Singlet oxygen has been postulated to be a highly reactive and toxic intermediate against skin. It is known that the acne-causing bacterium P. acnes naturally produces high amounts of intracellular porphyrins, mostly coproporphyrin (Ashkenazi et al. 2003). Singlet oxygen can be generated on the skin surface from P. acnes porphyrins under sunlight and induce serious skin damage ([…] et al. 1996 Biochem. Biophys. Res. Commun. 223: 578-582). Various skin disorders progress through a singlet oxygen-dependent mechanism, including acne, atopic dermatitis, and skin aging. Both hydrophilic and lipophilic oxygen radical absorbance capacity (ORAC) assays were carried out at Brunswick Laboratory (Wareham, Mass.) based on the modified ORACfl method reported by Ou et al. (2001 J. Agric. Food Chem. 49: 4619-4626, 2002 J. Agr. Food Chem. 50: 3122-3128). Trolox, a water-soluble vitamin E analog, was used as the calibration standard. The data are expressed as mmole of Trolox equivalents per gram (mmol TE/g). The acceptable precision of the ORAC assay is a 15% relative standard deviation. Caffeic acid was used as the calibration standard. Hydroxyl radical ORAC (HOR-AC) is expressed as mmole caffeic acid equivalent per gram (mmol CAE/g). Trolox was used as the calibration standard. The peroxyl nitrite ORAC (NORAC) result is expressed as mmol TE/g. Alpha-tocopherol (vitamin E) was used as the calibration standard, and the singlet oxygen absorbance capacity (SOAC) result is expressed as mmole a-tocopherol equivalent (mmol VtE) per gram (Aubry et al. 1989). […] Radical-scavenging activity was measured by the change in absorbance at 517 nm with the DPPH result expressed as mmol TE/g. […] The FRAP result is expressed as mmol TE/g (Ou et al. 2002b). Superoxide dismutase (SOD) was used as a calibration standard; the SOD result is expressed as kilo unit SOD equivalent (kunitSODeq) per gram.

As for `COc1cc(O)c(CC=C(C)C)c(O)c1C(=O)/C=C/c1ccc(O)cc1` [Xanthohumol (7), 3′-[3,3-dimethylallyl]-2′,4′,4-trihydroxy-6′-methoxychalcone], in experiment [1] (FIG. 2 radar chart), the “quenching activity against peroxyl radical (ORAC-total), rank among hop components” value was “highest quenching activity”. Further, in experiment [1] (ORAClipo + ORAChydro), the “ORAC-Total (Trolox equivalent)” value came to 4.2 Trolox equivalent. Besides, the “SOAC value, times higher than that of vitamin E or Polyphenon 60” value in experiment [2] is recorded as 8-15 times. Further, the “SOAC (Vitamin E equivalent)” value in experiment [2] (expressed as mmol VtE/g) was determined as 14.1 Vitamin E equivalent.
